Measured values from ChEMBL document CHEMBL1201862, “PubChem BioAssay data set” (2004).
Activity calls are given as the source filed them.

Legend:
[1] = biological target: T1, Dual specificity protein phosphatase 3 (Homo sapiens, UniProt P51452); experiment: VHR1 phosphatase inhibitors, primary screen, biochemical, absorbance, uHTS (AID 1654)
[2] = biological target: T1, Dual specificity protein phosphatase 3; experiment: VHR1 phosphatase inhibitors, biochemical (AID 1878)
[3] = biological target: T2, Dual specificity protein phosphatase 6 (Rattus norvegicus, UniProt Q64346); experiment: inhibition of rat DUSP6 enzyme activity – biochemical, in vitro, primary screen (AID 425)
T2 sequence (Q64346 whole entry): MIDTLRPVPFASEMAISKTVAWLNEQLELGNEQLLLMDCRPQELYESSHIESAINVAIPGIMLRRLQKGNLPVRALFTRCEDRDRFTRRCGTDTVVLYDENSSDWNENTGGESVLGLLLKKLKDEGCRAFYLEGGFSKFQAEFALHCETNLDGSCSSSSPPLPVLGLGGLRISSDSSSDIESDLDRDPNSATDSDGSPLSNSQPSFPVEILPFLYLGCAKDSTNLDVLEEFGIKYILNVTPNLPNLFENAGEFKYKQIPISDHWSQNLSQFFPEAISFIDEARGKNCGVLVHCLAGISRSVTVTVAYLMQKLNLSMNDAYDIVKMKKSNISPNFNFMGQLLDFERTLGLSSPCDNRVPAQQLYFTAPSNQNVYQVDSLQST

[4] = biological target: T1, Dual specificity protein phosphatase 3; experiment: SAR VHR1 absorbance Assay for In Vitro dose response studies. [Related pubchem assays (depositor defined):AID1654, AID1661, AID1878, AID1992, AID2004]
[5] = biological target: T1, Dual specificity protein phosphatase 3; experiment: SAR VHR1 Fluorescent Assay for In Vitro dose response studies. [Related pubchem assays (depositor defined):AID1654, AID1661, AID1878, AID1992, AID2004, AID2070, AID2085]; type: functional
[6] = biological target: T3, Tyrosine-protein phosphatase non-receptor type 7 (Homo sapiens, UniProt P35236); experiment: redox-active compounds inhibiting HePTP phosphatase – biochemical, fluorescence, mechanism study (AID 2068); type: functional
T3 sequence (P35236 whole entry): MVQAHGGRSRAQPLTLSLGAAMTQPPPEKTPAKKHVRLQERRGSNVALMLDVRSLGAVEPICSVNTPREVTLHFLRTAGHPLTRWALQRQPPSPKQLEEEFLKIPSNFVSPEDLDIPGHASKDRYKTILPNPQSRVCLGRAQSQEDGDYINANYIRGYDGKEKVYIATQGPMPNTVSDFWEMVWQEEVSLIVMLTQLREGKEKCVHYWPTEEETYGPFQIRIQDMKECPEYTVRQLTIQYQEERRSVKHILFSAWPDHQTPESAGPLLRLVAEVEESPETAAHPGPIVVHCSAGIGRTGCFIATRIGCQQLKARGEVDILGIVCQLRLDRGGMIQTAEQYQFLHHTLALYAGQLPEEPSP

[7] = biological target: T2, Dual specificity protein phosphatase 6; experiment: SAR analysis of inhibitors of MKP-3 - Set 2. [Related pubchem assays (depositor defined):AID1055, AID1661, AID425, AID553, AID566]; type: functional
[8] = biological target: T3, Tyrosine-protein phosphatase non-receptor type 7; experiment: inhibition of hematopoietic tyrosine phosphatase HePTP – biochemical, set 2, SAR follow-up (AID 449736); type: functional
[9] = biological target: T3, Tyrosine-protein phosphatase non-receptor type 7; experiment: SAR analysis of chemical inhibitors of HePTP using a Fluorescent assay - Set 2. [Related pubchem assays (depositor defined):AID1059, AID1077, AID1661, AID2085, AID521]; type: functional
[10] = biological target: T1, Dual specificity protein phosphatase 3; experiment: SAR VHR1 Fluorescent Assay for In Vitro dose response studies Set 2. [Related pubchem assays (depositor defined):AID1654, AID1661, AID1878]; type: functional
[11] = biological target: T2, Dual specificity protein phosphatase 6; type: functional
[12] = biological target: Intestinal-type alkaline phosphatase (Mus musculus, UniProt P24822); experiment: PubChem AID 488874; type: functional
[13] = biological target: T4, Intestinal-type alkaline phosphatase (Homo sapiens, UniProt P09923); experiment: inhibition of human intestinal alkaline phosphatase – biochemical, luminescent, uHTS hits, set 2, dose response (AID 488793); type: functional
[14] = biological target: T4, Intestinal-type alkaline phosphatase; experiment: Dose Response confirmation of uHTS hits from a small molecule inhibitors of human intestinal alkaline phosphatase via a luminescent assay. [Related pubchem assays (depositor defined):AID2544, AID2574]; type: functional
[15] = biological target: Nonstructural protein 1 (Influenza A virus, UniProt Q194T2); type: functional, Influenza A virus (A/California/07/2009(H1N1))
[16] = biological target: T5, Alkaline phosphatase, tissue-nonspecific isozyme (Homo sapiens, UniProt P05186); experiment: inhibition of tissue-nonspecific alkaline phosphatase – biochemical, dose response (AID 488882); type: functional
T5 sequence (P05186 whole entry): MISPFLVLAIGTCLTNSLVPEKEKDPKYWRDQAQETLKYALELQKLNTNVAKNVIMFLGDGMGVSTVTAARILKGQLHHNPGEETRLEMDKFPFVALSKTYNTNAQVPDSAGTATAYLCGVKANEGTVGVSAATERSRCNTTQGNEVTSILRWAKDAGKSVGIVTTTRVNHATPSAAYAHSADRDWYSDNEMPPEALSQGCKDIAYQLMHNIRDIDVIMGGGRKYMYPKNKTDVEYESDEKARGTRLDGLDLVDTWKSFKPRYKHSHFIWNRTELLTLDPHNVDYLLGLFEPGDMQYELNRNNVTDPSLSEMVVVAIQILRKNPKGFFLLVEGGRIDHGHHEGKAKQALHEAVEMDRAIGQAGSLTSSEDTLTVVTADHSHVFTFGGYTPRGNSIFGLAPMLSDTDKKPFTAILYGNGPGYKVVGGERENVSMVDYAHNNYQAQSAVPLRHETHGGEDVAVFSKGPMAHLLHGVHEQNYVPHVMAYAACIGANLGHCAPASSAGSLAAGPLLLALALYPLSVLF

[17] = biological target: T6, Protein RecA (Mycobacterium tuberculosis, UniProt P9WHJ3); experiment: Fluorescence Cell-Free Homogeneous Dose Retest to Identify Inhibitors of RecA-Intein Splicing Activity. [Related pubchem assays (depositor defined):AID2097, AID2223, AID489010, AID492950]; type: functional
T6 sequence (P9WHJ3 whole entry): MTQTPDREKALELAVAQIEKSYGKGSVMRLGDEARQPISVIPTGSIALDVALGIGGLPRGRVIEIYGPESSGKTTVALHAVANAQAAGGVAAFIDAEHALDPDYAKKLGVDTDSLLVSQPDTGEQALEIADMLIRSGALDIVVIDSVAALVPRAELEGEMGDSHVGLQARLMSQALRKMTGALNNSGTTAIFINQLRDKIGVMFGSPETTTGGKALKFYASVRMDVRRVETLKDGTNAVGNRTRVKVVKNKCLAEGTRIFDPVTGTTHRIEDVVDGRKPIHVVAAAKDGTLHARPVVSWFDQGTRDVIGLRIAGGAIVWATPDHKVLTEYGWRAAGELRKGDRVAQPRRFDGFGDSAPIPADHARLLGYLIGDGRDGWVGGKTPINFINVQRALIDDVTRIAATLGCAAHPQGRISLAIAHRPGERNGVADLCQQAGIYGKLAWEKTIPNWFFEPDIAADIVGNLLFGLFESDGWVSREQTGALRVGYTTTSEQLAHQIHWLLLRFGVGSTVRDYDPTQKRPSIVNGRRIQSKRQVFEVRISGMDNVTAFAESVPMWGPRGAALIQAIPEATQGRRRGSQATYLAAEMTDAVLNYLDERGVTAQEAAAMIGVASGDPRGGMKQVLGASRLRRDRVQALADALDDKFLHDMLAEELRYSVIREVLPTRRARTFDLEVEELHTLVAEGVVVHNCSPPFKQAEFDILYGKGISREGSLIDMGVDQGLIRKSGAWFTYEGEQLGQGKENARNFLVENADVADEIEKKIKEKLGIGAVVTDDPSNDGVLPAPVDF

[18] = biological target: T7, Protein skinhead-1 (Caenorhabditis elegans, UniProt P34707); type: functional
T7 sequence (P34707 whole entry): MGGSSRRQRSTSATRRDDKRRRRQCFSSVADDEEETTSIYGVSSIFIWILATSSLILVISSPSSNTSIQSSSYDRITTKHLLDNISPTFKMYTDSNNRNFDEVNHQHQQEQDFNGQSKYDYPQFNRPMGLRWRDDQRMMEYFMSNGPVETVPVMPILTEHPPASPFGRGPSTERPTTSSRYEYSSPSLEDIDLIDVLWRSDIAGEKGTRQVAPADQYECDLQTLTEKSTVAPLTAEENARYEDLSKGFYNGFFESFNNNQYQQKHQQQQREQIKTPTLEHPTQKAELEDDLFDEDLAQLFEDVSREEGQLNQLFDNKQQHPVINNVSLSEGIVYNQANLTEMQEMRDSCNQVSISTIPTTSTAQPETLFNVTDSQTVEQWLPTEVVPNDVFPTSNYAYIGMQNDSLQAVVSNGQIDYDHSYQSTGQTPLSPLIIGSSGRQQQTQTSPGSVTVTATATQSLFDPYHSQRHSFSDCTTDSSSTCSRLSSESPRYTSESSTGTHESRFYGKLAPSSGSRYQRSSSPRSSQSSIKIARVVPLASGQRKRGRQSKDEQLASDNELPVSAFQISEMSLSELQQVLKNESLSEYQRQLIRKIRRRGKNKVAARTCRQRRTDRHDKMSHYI

[19] = restored growth of temperature-sensitive Burl-1 yeast – whole organism, S. cerevisiae, Burl-1 ts mutant, luminescence, counter-screen for SUMOylation pathway inhibitor project, dose response (AID 463199); type: functional
[20] = biological target: Sphingosine 1-phosphate receptor 5 (Homo sapiens, UniProt Q9H228); experiment: Late stage counterscreen assay for S1P4 antagonists: Fluorescence dose response cell-based screening assay for antagonists of the Sphingosine 1-Phosphate Receptor 5 (S1P5). [Related pubchem assays (depositor defined):AID1510, AID1524, AID1692, AID1853, AID2332, AID489009, AID489017]; type: functional
[21] = biological target: Sphingosine 1-phosphate receptor 3 (Homo sapiens, UniProt Q99500); experiment: Late stage counterscreen assay for S1P4 antagonists: Fluorescence dose response cell-based screening assay for antagonists of the Sphingosine 1-Phosphate Receptor 3 (S1P3). [Related pubchem assays (depositor defined):AID1510, AID1524, AID1692, AID1853, AID2332, AID489009, AID489017]; type: functional
[22] = biological target: Sphingosine 1-phosphate receptor 1 (Homo sapiens, UniProt P21453); experiment: Late stage counterscreen assay for S1P4 antagonists: Fluorescence dose response cell-based screening assay for antagonists of the Sphingosine 1-Phosphate Receptor 1 (S1P1). [Related pubchem assays (depositor defined):AID1510, AID1524, AID1692, AID1853, AID2332, AID489009, AID489017]; type: functional
[23] = biological target: Sphingosine 1-phosphate receptor 2 (Homo sapiens, UniProt O95136); experiment: Late stage counterscreen assay for S1P4 antagonists: Fluorescence dose response cell-based screening assay for antagonists of the Sphingosine 1-Phosphate Receptor 2 (S1P2). [Related pubchem assays (depositor defined):AID1510, AID1524, AID1692, AID1853, AID2332, AID489009, AID489017]; type: functional
[24] = biological target: SUMO E1/E2 (Homo sapiens, UniProt P63279+Q9UBE0+Q9UBT2); experiment: SAR analysis of SUMOylation using HTRF in an in-Vitro dose response assay. [Related pubchem assays (depositor defined):AID2006, AID2011, AID2018, AID2069, AID2658]; type: functional
[25] = biological target: T8, Voltage-gated N-type calcium channel alpha-1B subunit/Amyloid beta A4 precursor protein-binding family A member 1 (Homo sapiens, UniProt Q00975+Q02410); experiment: disruptors of Mint-PDZ/N-type channel peptide interaction – biochemical, HTRF, set 2, SAR follow-up (AID 434980); type: functional
[26] = biological target: T8, Voltage-gated N-type calcium channel alpha-1B subunit/Amyloid beta A4 precursor protein-binding family A member 1; experiment: disruptors of Mint-PDZ/N-type channel peptide interaction – biochemical, HTRF, SAR follow-up (AID 2489); type: functional
[27] = biological target: Cytochrome P450 2C9 (Homo sapiens, UniProt P11712)
[28] = biological target: Cytochrome P450 2D6 (Homo sapiens, UniProt P10635);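 further: CYP2D6 member of a cytochrome P450 panel assay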

T1 sequence (P51452 whole entry): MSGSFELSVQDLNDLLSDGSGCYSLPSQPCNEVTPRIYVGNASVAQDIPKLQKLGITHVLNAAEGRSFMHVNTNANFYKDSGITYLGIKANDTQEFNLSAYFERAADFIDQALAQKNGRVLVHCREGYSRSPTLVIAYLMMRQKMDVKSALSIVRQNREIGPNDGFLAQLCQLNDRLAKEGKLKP
T8 sequence (Q00975 whole entry): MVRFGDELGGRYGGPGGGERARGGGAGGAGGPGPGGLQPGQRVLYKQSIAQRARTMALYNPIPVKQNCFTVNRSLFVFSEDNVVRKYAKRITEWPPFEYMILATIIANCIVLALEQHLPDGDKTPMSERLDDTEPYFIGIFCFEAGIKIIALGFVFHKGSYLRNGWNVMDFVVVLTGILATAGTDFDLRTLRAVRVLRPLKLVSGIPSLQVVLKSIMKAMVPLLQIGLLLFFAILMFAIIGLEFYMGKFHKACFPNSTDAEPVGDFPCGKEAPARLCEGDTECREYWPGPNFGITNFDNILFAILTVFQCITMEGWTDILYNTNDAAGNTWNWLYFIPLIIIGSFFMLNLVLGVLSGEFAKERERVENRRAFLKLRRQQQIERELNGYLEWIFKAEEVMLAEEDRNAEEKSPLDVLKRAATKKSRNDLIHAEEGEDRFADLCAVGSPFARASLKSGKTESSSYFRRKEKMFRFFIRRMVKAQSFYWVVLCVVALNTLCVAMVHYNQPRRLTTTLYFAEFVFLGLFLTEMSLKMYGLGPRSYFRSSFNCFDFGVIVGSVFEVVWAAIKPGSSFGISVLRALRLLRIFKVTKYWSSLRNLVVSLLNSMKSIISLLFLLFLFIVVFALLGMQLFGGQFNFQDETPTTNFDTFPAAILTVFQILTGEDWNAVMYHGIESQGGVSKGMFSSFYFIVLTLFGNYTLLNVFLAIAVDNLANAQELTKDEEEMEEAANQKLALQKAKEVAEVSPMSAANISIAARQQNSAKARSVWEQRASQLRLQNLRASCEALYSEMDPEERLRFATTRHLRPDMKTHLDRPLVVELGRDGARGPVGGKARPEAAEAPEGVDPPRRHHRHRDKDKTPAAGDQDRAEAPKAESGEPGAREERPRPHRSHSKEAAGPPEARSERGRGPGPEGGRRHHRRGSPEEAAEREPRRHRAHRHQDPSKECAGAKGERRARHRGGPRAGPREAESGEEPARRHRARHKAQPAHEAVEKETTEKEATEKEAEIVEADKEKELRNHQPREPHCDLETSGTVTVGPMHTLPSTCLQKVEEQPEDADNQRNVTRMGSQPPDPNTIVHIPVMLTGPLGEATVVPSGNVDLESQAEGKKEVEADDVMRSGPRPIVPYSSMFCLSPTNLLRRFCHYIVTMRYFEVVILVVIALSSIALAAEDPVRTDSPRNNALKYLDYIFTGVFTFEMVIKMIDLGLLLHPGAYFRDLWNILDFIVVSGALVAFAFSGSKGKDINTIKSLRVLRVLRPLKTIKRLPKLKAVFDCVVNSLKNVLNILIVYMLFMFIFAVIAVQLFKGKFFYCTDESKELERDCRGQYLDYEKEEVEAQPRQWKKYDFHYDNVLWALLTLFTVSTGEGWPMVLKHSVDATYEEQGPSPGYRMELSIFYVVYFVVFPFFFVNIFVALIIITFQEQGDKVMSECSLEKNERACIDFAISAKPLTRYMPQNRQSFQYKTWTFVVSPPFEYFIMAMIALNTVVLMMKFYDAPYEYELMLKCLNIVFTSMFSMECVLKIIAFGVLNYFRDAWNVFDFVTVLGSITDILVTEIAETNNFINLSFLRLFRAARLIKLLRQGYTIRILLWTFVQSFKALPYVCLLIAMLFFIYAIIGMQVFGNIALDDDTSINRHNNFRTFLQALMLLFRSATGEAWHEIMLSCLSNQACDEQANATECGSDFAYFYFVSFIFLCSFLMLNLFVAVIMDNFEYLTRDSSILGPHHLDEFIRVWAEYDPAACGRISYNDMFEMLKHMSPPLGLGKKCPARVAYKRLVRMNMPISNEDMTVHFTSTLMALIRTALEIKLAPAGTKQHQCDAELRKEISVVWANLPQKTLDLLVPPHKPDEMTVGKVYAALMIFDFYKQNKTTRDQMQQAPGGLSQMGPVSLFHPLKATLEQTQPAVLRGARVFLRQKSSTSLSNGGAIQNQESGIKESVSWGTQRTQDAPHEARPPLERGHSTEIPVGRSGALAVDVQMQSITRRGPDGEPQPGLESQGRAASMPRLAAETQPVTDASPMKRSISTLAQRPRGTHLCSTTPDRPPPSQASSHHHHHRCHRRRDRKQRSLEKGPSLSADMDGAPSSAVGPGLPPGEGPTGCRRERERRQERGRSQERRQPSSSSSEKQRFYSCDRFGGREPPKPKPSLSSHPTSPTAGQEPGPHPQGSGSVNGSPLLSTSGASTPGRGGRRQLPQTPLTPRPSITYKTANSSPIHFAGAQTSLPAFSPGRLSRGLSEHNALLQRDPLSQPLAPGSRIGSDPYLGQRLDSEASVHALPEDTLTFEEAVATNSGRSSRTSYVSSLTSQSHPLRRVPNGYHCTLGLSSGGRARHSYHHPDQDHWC
T8 sequence (Q02410 whole entry): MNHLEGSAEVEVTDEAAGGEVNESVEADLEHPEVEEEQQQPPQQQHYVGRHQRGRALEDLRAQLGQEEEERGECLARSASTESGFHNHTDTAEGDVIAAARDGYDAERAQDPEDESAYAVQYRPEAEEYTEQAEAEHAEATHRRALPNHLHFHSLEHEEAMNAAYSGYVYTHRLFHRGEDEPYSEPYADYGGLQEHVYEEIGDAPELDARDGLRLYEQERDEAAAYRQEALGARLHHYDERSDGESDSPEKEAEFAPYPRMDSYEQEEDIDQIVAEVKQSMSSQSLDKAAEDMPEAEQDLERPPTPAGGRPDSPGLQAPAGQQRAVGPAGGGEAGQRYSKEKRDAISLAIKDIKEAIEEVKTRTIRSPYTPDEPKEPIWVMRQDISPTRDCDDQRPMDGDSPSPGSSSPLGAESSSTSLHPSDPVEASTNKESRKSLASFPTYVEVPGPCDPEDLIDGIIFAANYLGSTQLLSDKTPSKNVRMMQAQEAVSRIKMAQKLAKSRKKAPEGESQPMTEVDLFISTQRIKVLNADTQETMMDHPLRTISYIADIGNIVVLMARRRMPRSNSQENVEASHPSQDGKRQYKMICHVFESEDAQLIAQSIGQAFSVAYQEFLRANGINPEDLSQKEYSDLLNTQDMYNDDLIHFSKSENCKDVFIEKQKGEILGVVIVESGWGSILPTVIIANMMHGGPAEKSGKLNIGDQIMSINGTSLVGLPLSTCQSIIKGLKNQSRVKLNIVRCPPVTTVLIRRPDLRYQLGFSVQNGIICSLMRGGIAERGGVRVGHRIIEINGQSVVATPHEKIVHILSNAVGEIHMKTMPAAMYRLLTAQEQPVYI
T4 sequence (P09923 whole entry): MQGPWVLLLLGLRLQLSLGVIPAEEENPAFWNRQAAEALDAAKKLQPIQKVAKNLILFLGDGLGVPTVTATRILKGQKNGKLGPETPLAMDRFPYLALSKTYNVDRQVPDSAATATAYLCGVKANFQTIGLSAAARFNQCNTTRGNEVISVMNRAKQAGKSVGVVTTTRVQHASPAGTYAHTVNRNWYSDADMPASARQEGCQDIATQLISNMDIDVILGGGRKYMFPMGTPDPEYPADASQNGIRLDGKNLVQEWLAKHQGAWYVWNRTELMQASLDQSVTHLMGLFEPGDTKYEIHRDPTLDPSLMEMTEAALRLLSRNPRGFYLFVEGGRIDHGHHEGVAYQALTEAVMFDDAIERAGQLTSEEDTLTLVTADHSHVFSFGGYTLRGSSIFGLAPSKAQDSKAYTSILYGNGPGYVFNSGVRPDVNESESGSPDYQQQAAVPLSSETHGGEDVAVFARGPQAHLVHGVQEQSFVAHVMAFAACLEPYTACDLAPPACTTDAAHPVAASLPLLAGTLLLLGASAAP
Sphingosine 1-phosphate receptor 3, sequence (Q99500 whole entry): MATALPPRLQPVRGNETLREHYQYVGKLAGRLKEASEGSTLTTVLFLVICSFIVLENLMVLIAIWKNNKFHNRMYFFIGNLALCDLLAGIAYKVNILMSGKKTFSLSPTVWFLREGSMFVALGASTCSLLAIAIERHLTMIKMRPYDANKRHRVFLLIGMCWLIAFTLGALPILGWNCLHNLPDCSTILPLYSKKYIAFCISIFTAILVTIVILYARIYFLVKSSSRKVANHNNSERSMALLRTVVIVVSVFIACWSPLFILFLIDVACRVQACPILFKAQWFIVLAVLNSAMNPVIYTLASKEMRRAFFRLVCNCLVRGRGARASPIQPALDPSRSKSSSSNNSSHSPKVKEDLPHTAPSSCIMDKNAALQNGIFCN
Sphingosine 1-phosphate receptor 2, sequence (O95136 whole entry): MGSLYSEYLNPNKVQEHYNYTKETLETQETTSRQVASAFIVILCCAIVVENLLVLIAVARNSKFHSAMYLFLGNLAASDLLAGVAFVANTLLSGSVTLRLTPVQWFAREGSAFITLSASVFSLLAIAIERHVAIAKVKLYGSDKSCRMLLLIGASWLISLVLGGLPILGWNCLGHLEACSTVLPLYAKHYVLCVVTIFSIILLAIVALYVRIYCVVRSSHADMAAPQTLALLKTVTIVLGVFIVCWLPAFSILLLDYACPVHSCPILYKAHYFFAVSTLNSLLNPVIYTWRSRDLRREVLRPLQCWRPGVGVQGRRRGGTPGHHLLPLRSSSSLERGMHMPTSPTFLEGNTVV
Sphingosine 1-phosphate receptor 1, sequence (P21453 whole entry): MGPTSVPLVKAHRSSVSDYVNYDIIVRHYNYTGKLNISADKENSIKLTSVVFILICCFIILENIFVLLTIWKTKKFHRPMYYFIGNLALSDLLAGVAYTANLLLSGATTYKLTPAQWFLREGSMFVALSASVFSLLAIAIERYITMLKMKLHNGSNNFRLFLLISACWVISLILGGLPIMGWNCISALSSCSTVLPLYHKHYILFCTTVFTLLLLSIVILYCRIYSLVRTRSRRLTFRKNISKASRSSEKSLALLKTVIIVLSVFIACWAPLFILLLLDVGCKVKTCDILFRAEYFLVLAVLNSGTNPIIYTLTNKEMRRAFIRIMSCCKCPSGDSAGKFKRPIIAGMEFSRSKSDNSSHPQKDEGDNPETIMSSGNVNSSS

In the case of NS(=O)(=O)c1ccc(NC(=S)NC2CCCCC2)cc1, the IC50 [1] was 2.15 µM (active), the IC50 [2] was 3.49 µM (active) and the IC50 [3] was > 158 µM (not active). The IC50 [4] was 0.704 µM (active), the IC50 [5] was > 99 µM (inactive) and the IC50 [6] was 0.025 µM (active). The IC50 [7] was > 100 µM (inactive), the IC50 [8] was > 100 µM (inactive) and the IC50 [9] was 1.27 µM (active). For the same compound, the IC50 [10] was 0.143 µM (active) and the IC50 [11] was > 99 µM (inactive).

With CC1=NN(Cc2ccccc2)C(=O)/C1=C\c1ccc(N(C)C)cc1 the IC50 [12] was 35.1 µM (active), the IC50 [13] was 39.4 µM (active) and the IC50 [14] was 16.8 µM (inactive). The IC50 [15] was 32.3 µM (active), the IC50 [16] was 46.7 µM (active) and the EC50 [17] was > 380 µM (inactive). For the same compound, the IC50 [18] was > 100 µM (inactive).

With O=C1CC(c2cccc(Br)c2)C2=C(COC2=O)N1 (stereo not drawn) the AC50 [19] was 85 µM (active).

With Cc1cscc1-c1ccc(C(=O)Nc2c(C)cccc2C)o1 the IC50 [20] was > 25 µM (inactive), the IC50 [21] was > 25 µM (inactive) and the IC50 [22] was > 25 µM (inactive). For the same compound, the IC50 [23] was > 25 µM (inactive).

With Cc1ccc(CNC(=O)COC(=O)c2cc(-c3ccco3)nc3ccccc23)cc1 the IC50 [24] was 6.5 µM (active), the IC50 [25] was 12.1 µM (active) and the IC50 [26] was 18.1 µM (active).

With Cc1nn(-c2ccccc2)c(Cl)c1/C=N/NC(=O)c1ccco1 the AC50 [27] was 22.4 µM (inconclusive) and the AC50 [28] was “inconclusive”.
